Results: PubChem BioAssay (NCI)
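Where inhibition never reached the appropriate level, the endpoint shown equals the highest concentration tested. Otherwise, values were interpolated linearly from a five-concentration, 48-hour dose response in 96-well plates. TGI: total growth inhibition.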

Assays:
Assay in all cases: DTP human tumour cell line panel, 48 h
[1] = system: A498 renal
[2] = system: KM20L2 colon
[3] = system: A549 NSCLC
[4] = system: NCI-H460 lung
[5] = system: M19-MEL melanoma
[6] = system: DMS 114 small cell lung
[7] = system: SNB-75 CNS
[8] = system: HOP-92 NSCLC
[9] = system: COLO 205 colon
[10] = system: M14 melanoma
[11] = system: HCT-15 colon
[12] = system: CCRF-CEM leukemia
[13] = system: SF-295 CNS
[14] = system: HOP-62 NSCLC
[15] = system: IGROV1 ovarian
[16] = system: CAKI-1 renal
[17] = system: RXF 393 renal
[18] = system: RPMI-8226 leukemia
[19] = system: DLD-1 colon
[20] = system: MOLT-4 leukemia
[21] = system: HT29 colon
[22] = system: HCC-2998 colon
[23] = system: TK-10 renal
[24] = system: OVCAR-8 ovarian
[25] = system: DMS 273 small cell lung
[26] = system: XF 498 CNS
[27] = system: 786-0 renal
[28] = system: EKVX NSCLC
[29] = system: HCT-116 colon
[30] = system: HL-60(TB) leukemia
[31] = system: HOP-18 NSCLC
[32] = system: NCI-H226 lung
[33] = system: MALME-3M melanoma
[34] = system: K-562 leukemia
[35] = system: OVCAR-4 ovarian
[36] = system: SNB-19 CNS
[37] = system: KM12 colon
[38] = system: NCI-H23 lung
[39] = system: UACC-257 melanoma
[40] = system: SF-268 CNS
[41] = system: SR leukemia
[42] = system: LXFL 529 NSCLC
[43] = system: SK-MEL-2 melanoma
[44] = system: OVCAR-3 ovarian
[45] = system: UO-31 renal
[46] = system: SK-MEL-28 melanoma
[47] = system: SN12C renal
[48] = system: SF-539 CNS
[49] = system: SK-MEL-5 melanoma
[50] = system: ACHN renal
[51] = system: UACC-62 melanoma
[52] = system: OVCAR-5 ovarian
[53] = system: SNB-78 CNS
[54] = system: LOX IMVI melanoma
[55] = system: NCI-H522 lung
[56] = system: SW-620 colon
[57] = system: U251 CNS

C/C(CC(=O)Nc1ccc(Cl)c(Cl)c1)=N/NC(=O)C[N+](C)(C)C
TGI [1]: > 100 µM | TGI [2]: > 100 µM | TGI [3]: > 100 µM | TGI [4]: > 100 µM | TGI [5]: > 100 µM | TGI [6]: 55.6 µM | TGI [7]: > 100 µM | TGI [8]: > 100 µM | TGI [9]: > 100 µM | TGI [10]: > 100 µM | TGI [11]: > 100 µM | TGI [12]: > 100 µM | TGI [13]: > 100 µM | TGI [14]: > 100 µM | TGI [15]: > 100 µM | TGI [16]: > 100 µM | TGI [17]: > 100 µM | TGI [18]: 63.4 µM | TGI [19]: > 100 µM | TGI [20]: > 100 µM | TGI [21]: > 100 µM | TGI [22]: > 100 µM | TGI [23]: > 100 µM | TGI [24]: > 100 µM | TGI [25]: > 100 µM | TGI [26]: > 100 µM | TGI [27]: > 100 µM | TGI [28]: > 100 µM | TGI [29]: > 100 µM | TGI [30]: > 100 µM | TGI [31]: > 100 µM | TGI [32]: > 100 µM | TGI [33]: > 100 µM | TGI [34]: > 100 µM | TGI [35]: > 100 µM | TGI [36]: > 100 µM | TGI [37]: > 100 µM | TGI [38]: > 100 µM | TGI [39]: > 100 µM | TGI [40]: > 100 µM | TGI [41]: 43.2 µM | TGI [42]: > 100 µM | TGI [43]: > 100 µM | TGI [44]: > 100 µM | TGI [45]: > 100 µM | TGI [46]: > 100 µM | TGI [47]: > 100 µM | TGI [48]: > 100 µM | TGI [49]: > 100 µM | TGI [50]: > 100 µM | TGI [51]: > 100 µM | TGI [52]: > 100 µM | TGI [53]: > 100 µM | TGI [54]: 35.5 µM

CCOC(=O)[C@H]1Nc2ccc(Cl)cc2[C@H]2CCC[C@@H]12
TGI [2]: > 100 µM | TGI [3]: > 100 µM | TGI [4]: > 100 µM | TGI [5]: > 100 µM | TGI [6]: > 100 µM | TGI [7]: > 100 µM | TGI [9]: > 100 µM | TGI [10]: > 100 µM | TGI [11]: > 100 µM | TGI [13]: > 100 µM | TGI [14]: > 100 µM | TGI [15]: > 100 µM | TGI [16]: > 100 µM | TGI [17]: 64.4 µM | TGI [18]: > 100 µM | TGI [19]: > 100 µM | TGI [20]: > 100 µM | TGI [21]: > 100 µM | TGI [22]: > 100 µM | TGI [23]: > 100 µM | TGI [24]: > 100 µM | TGI [25]: > 100 µM | TGI [26]: > 100 µM | TGI [27]: > 100 µM | TGI [28]: > 100 µM | TGI [29]: > 100 µM | TGI [31]: > 100 µM | TGI [32]: > 100 µM | TGI [33]: > 100 µM | TGI [34]: > 100 µM | TGI [35]: > 100 µM | TGI [36]: > 100 µM | TGI [37]: > 100 µM | TGI [38]: > 100 µM | TGI [39]: 62.2 µM | TGI [40]: > 100 µM | TGI [41]: > 100 µM | TGI [42]: > 100 µM | TGI [55]: > 100 µM | TGI [43]: > 100 µM | TGI [44]: > 100 µM | TGI [45]: > 100 µM | TGI [46]: > 100 µM | TGI [47]: > 100 µM | TGI [48]: > 100 µM | TGI [49]: > 100 µM | TGI [56]: > 100 µM | TGI [50]: > 100 µM | TGI [57]: > 100 µM | TGI [51]: > 100 µM | TGI [52]: > 100 µM | TGI [53]: > 100 µM | TGI [54]: > 100 µM
